{
  "source": "patent US9113629B2",
  "about": "“4-amino-6-(4-substituted-phenyl)-picolinates and 6-amino-2-(4-substituted-phenyl)-pyrimidine-4-carboxylates and their use as herbicides” (DOW AGROSCIENCES LLC, priority 2013, dated 2015)",
  "data": [
    {"test_system": "Key Grass and Sedge Weeds as well as Grass Crops", "experiment": "Post-emergent Test II herbicidal activity (Table 6)", "assay_type": "in vivo", "settings": "Triticum aestivum, post-emergence, 336 h, TRZSS (wheat), application rate 70 g ai/ha, read-out: Visual Growth Reduction (%) 14 Days After Application, TRZSS", "summary_of_the_method": "(§1)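 Greenhouse post-emergent assay: seedlings (first/second true leaf) in Metro-Mix 360 were sprayed at 187 L/ha at a top rate plus twofold dilutions down to 1/16×; solvent-blank controls were included. Percent visual injury was read at 14 d.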", "units": {"pest or weed control at 70 g/ha": "%"}, "values": [
      {"smiles": "C=Cc1c(C(=O)OC)nc(-c2ccc(C(F)(F)F)c(F)c2F)c(F)c1N", "note": "[Compound 53, methyl 4-amino-6-(2,3-difluoro-4-(trifluoromethyl)phenyl)-5-fluoro-3-vinylpicolinate]", "pest or weed control at 70 g/ha": "0 to 29"}
    ]},
    {"test_system": "Key Grass and Sedge Weeds as well as Grass Crops", "experiment": "Post-emergent Test II herbicidal activity (Table 6)", "assay_type": "in vivo", "settings": "Triticum aestivum, post-emergence, 336 h, TRZSS (wheat), application rate 140 g ai/ha, read-out: Visual Growth Reduction (%) 14 Days After Application, TRZSS", "summary_of_the_method": "as §1", "units": {"pest or weed control at 140 g/ha": "%"}, "values": [
      {"smiles": "C=Cc1c(C(=O)OC)nc(-c2ccc(C(F)(F)F)c(F)c2F)c(F)c1N", "note": "[Compound 53, methyl 4-amino-6-(2,3-difluoro-4-(trifluoromethyl)phenyl)-5-fluoro-3-vinylpicolinate]", "pest or weed control at 140 g/ha": "0 to 29"}
    ]},
    {"test_system": "Key Grass and Sedge Weeds as well as Grass Crops", "experiment": "Post-emergent Test II herbicidal activity (Table 6)", "assay_type": "in vivo", "settings": "post-emergence, 336 h, CYPES: yellow nutsedge (Cyperus esculentus), application rate 70 g ai/ha, read-out: Visual Growth Reduction (%) 14 Days After Application, CYPES", "summary_of_the_method": "as §1", "units": {"pest or weed control at 70 g/ha": "%"}, "values": [
      {"smiles": "C=Cc1c(C(=O)OC)nc(-c2ccc(C(F)(F)F)c(F)c2F)c(F)c1N", "note": "[Compound 53, methyl 4-amino-6-(2,3-difluoro-4-(trifluoromethyl)phenyl)-5-fluoro-3-vinylpicolinate]", "pest or weed control at 70 g/ha": "0 to 29"}
    ]},
    {"test_system": "Key Grass and Sedge Weeds as well as Grass Crops", "experiment": "Post-emergent Test II herbicidal activity (Table 6)", "assay_type": "in vivo", "settings": "post-emergence, 336 h, CYPES: yellow nutsedge (Cyperus esculentus), application rate 140 g ai/ha, read-out: Visual Growth Reduction (%) 14 Days After Application, CYPES", "summary_of_the_method": "as §1", "units": {"pest or weed control at 140 g/ha": "%"}, "values": [
      {"smiles": "C=Cc1c(C(=O)OC)nc(-c2ccc(C(F)(F)F)c(F)c2F)c(F)c1N", "note": "[Compound 53, methyl 4-amino-6-(2,3-difluoro-4-(trifluoromethyl)phenyl)-5-fluoro-3-vinylpicolinate]", "pest or weed control at 140 g/ha": "0 to 29"}
    ]},
    {"test_system": "Key Grass and Sedge Weeds as well as Grass Crops", "experiment": "Post-emergent Test II herbicidal activity (Table 6)", "assay_type": "in vivo", "settings": "post-emergence, 336 h, DIGSA: crabgrass (Digitaria sanguinalis), application rate 70 g ai/ha, read-out: Visual Growth Reduction (%) 14 Days After Application, DIGSA", "summary_of_the_method": "as §1", "units": {"pest or weed control at 70 g/ha": "%"}, "values": [
      {"smiles": "C=Cc1c(C(=O)OC)nc(-c2ccc(C(F)(F)F)c(F)c2F)c(F)c1N", "note": "[Compound 53, methyl 4-amino-6-(2,3-difluoro-4-(trifluoromethyl)phenyl)-5-fluoro-3-vinylpicolinate]", "pest or weed control at 70 g/ha": "0 to 29"}
    ]},
    {"test_system": "Key Grass and Sedge Weeds as well as Grass Crops", "experiment": "Post-emergent Test II herbicidal activity (Table 6)", "assay_type": "in vivo", "settings": "post-emergence, 336 h, DIGSA: crabgrass (Digitaria sanguinalis), application rate 140 g ai/ha, read-out: Visual Growth Reduction (%) 14 Days After Application, DIGSA", "summary_of_the_method": "as §1", "units": {"pest or weed control at 140 g/ha": "%"}, "values": [
      {"smiles": "C=Cc1c(C(=O)OC)nc(-c2ccc(C(F)(F)F)c(F)c2F)c(F)c1N", "note": "[Compound 53, methyl 4-amino-6-(2,3-difluoro-4-(trifluoromethyl)phenyl)-5-fluoro-3-vinylpicolinate]", "pest or weed control at 140 g/ha": "0 to 29"}
    ]},
    {"test_system": "Key Grass and Sedge Weeds as well as Grass Crops", "experiment": "Post-emergent Test II herbicidal activity (Table 6)", "assay_type": "in vivo", "settings": "post-emergence, 336 h, ECHCG: barnyardgrass (Echinochloa crus-galli), application rate 70 g ai/ha, read-out: Visual Growth Reduction (%) 14 Days After Application, ECHCG", "summary_of_the_method": "as §1", "units": {"pest or weed control at 70 g/ha": "%"}, "values": [
      {"smiles": "C=Cc1c(C(=O)OC)nc(-c2ccc(C(F)(F)F)c(F)c2F)c(F)c1N", "note": "[Compound 53, methyl 4-amino-6-(2,3-difluoro-4-(trifluoromethyl)phenyl)-5-fluoro-3-vinylpicolinate]", "pest or weed control at 70 g/ha": "0 to 29"}
    ]},
    {"test_system": "Key Grass and Sedge Weeds as well as Grass Crops", "experiment": "Post-emergent Test II herbicidal activity (Table 6)", "assay_type": "in vivo", "settings": "post-emergence, 336 h, ECHCG: barnyardgrass (Echinochloa crus-galli), application rate 140 g ai/ha, read-out: Visual Growth Reduction (%) 14 Days After Application, ECHCG", "summary_of_the_method": "as §1", "units": {"pest or weed control at 140 g/ha": "%"}, "values": [
      {"smiles": "C=Cc1c(C(=O)OC)nc(-c2ccc(C(F)(F)F)c(F)c2F)c(F)c1N", "note": "[Compound 53, methyl 4-amino-6-(2,3-difluoro-4-(trifluoromethyl)phenyl)-5-fluoro-3-vinylpicolinate]", "pest or weed control at 140 g/ha": "0 to 29"}
    ]},
    {"test_system": "Key Grass and Sedge Weeds as well as Grass Crops", "experiment": "Post-emergent Test II herbicidal activity (Table 6)", "assay_type": "in vivo", "settings": "post-emergence, 336 h, ORYSA: rice (Oryza sativa), application rate 70 g ai/ha, read-out: Visual Growth Reduction (%) 14 Days After Application, ORYSA", "summary_of_the_method": "as §1", "units": {"pest or weed control at 70 g/ha": "%"}, "values": [
      {"smiles": "C=Cc1c(C(=O)OC)nc(-c2ccc(C(F)(F)F)c(F)c2F)c(F)c1N", "note": "[Compound 53, methyl 4-amino-6-(2,3-difluoro-4-(trifluoromethyl)phenyl)-5-fluoro-3-vinylpicolinate]", "pest or weed control at 70 g/ha": "0 to 29"}
    ]},
    {"test_system": "Key Grass and Sedge Weeds as well as Grass Crops", "experiment": "Post-emergent Test II herbicidal activity (Table 6)", "assay_type": "in vivo", "settings": "post-emergence, 336 h, ORYSA: rice (Oryza sativa), application rate 140 g ai/ha, read-out: Visual Growth Reduction (%) 14 Days After Application, ORYSA", "summary_of_the_method": "as §1", "units": {"pest or weed control at 140 g/ha": "%"}, "values": [
      {"smiles": "C=Cc1c(C(=O)OC)nc(-c2ccc(C(F)(F)F)c(F)c2F)c(F)c1N", "note": "[Compound 53, methyl 4-amino-6-(2,3-difluoro-4-(trifluoromethyl)phenyl)-5-fluoro-3-vinylpicolinate]", "pest or weed control at 140 g/ha": "0 to 29"}
    ]},
    {"test_system": "Key Grass and Sedge Weeds as well as Grass Crops", "experiment": "Post-emergent Test II herbicidal activity (Table 6)", "assay_type": "in vivo", "settings": "post-emergence, 336 h, SETFA: giant foxtail (Setaria faberi), application rate 70 g ai/ha, read-out: Visual Growth Reduction (%) 14 Days After Application, SETFA", "summary_of_the_method": "as §1", "units": {"pest or weed control at 70 g/ha": "%"}, "values": [
      {"smiles": "C=Cc1c(C(=O)OC)nc(-c2ccc(C(F)(F)F)c(F)c2F)c(F)c1N", "note": "[Compound 53, methyl 4-amino-6-(2,3-difluoro-4-(trifluoromethyl)phenyl)-5-fluoro-3-vinylpicolinate]", "pest or weed control at 70 g/ha": "0 to 29"}
    ]},
    {"test_system": "Key Grass and Sedge Weeds as well as Grass Crops", "experiment": "Post-emergent Test II herbicidal activity (Table 6)", "assay_type": "in vivo", "settings": "post-emergence, 336 h, SETFA: giant foxtail (Setaria faberi), application rate 140 g ai/ha, read-out: Visual Growth Reduction (%) 14 Days After Application, SETFA", "summary_of_the_method": "as §1", "units": {"pest or weed control at 140 g/ha": "%"}, "values": [
      {"smiles": "C=Cc1c(C(=O)OC)nc(-c2ccc(C(F)(F)F)c(F)c2F)c(F)c1N", "note": "[Compound 53, methyl 4-amino-6-(2,3-difluoro-4-(trifluoromethyl)phenyl)-5-fluoro-3-vinylpicolinate]", "pest or weed control at 140 g/ha": "0 to 29"}
    ]},
    {"test_system": "Key Grass and Sedge Weeds as well as Grass Crops", "experiment": "Post-emergent Test II herbicidal activity (Table 6)", "assay_type": "in vivo", "settings": "post-emergence, 336 h, SORVU: grain sorghum (Sorghum vulgare), application rate 70 g ai/ha, read-out: Visual Growth Reduction (%) 14 Days After Application, SORVU", "summary_of_the_method": "as §1", "units": {"pest or weed control at 70 g/ha": "%"}, "values": [
      {"smiles": "C=Cc1c(C(=O)OC)nc(-c2ccc(C(F)(F)F)c(F)c2F)c(F)c1N", "note": "[Compound 53, methyl 4-amino-6-(2,3-difluoro-4-(trifluoromethyl)phenyl)-5-fluoro-3-vinylpicolinate]", "pest or weed control at 70 g/ha": "0 to 29"}
    ]},
    {"test_system": "Key Grass and Sedge Weeds as well as Grass Crops", "experiment": "Post-emergent Test II herbicidal activity (Table 6)", "assay_type": "in vivo", "settings": "post-emergence, 336 h, SORVU: grain sorghum (Sorghum vulgare), application rate 140 g ai/ha, read-out: Visual Growth Reduction (%) 14 Days After Application, SORVU", "summary_of_the_method": "as §1", "units": {"pest or weed control at 140 g/ha": "%"}, "values": [
      {"smiles": "C=Cc1c(C(=O)OC)nc(-c2ccc(C(F)(F)F)c(F)c2F)c(F)c1N", "note": "[Compound 53, methyl 4-amino-6-(2,3-difluoro-4-(trifluoromethyl)phenyl)-5-fluoro-3-vinylpicolinate]", "pest or weed control at 140 g/ha": "0 to 29"}
    ]},
    {"test_system": "Key Grass and Sedge Weeds as well as Grass Crops", "experiment": "Post-emergent Test II herbicidal activity (Table 6)", "assay_type": "in vivo", "settings": "post-emergence, 336 h, ZEAMX: maize, corn (Zea mays), application rate 70 g ai/ha, read-out: Visual Growth Reduction (%) 14 Days After Application, ZEAMX", "summary_of_the_method": "as §1", "units": {"pest or weed control at 70 g/ha": "%"}, "values": [
      {"smiles": "C=Cc1c(C(=O)OC)nc(-c2ccc(C(F)(F)F)c(F)c2F)c(F)c1N", "note": "[Compound 53, methyl 4-amino-6-(2,3-difluoro-4-(trifluoromethyl)phenyl)-5-fluoro-3-vinylpicolinate]", "pest or weed control at 70 g/ha": "0 to 29"}
    ]},
    {"test_system": "Key Grass and Sedge Weeds as well as Grass Crops", "experiment": "Post-emergent Test II herbicidal activity (Table 6)", "assay_type": "in vivo", "settings": "post-emergence, 336 h, ZEAMX: maize, corn (Zea mays), application rate 140 g ai/ha, read-out: Visual Growth Reduction (%) 14 Days After Application, ZEAMX", "summary_of_the_method": "as §1", "units": {"pest or weed control at 140 g/ha": "%"}, "values": [
      {"smiles": "C=Cc1c(C(=O)OC)nc(-c2ccc(C(F)(F)F)c(F)c2F)c(F)c1N", "note": "[Compound 53, methyl 4-amino-6-(2,3-difluoro-4-(trifluoromethyl)phenyl)-5-fluoro-3-vinylpicolinate]", "pest or weed control at 140 g/ha": "0 to 29"}
    ]}
  ]
}
